Experimental data: ChEMBL document CHEMBL2331488, “Biotransformation of LASSBio-579 and pharmacological evaluation of p-hydroxylated metabolite a N-phenylpiperazine antipsychotic lead compound” (Eur J Med Chem, 2013); call rule not given here

Tests used:
[1] = molecular target: T1, 5-hydroxytryptamine receptor 2C (Homo sapiens, UniProt P28335); experiment: Displacement of [3H]-mesulergine from human 5HT2C receptor after 60 mins by liquid scintillation counting
T1 sequence (P28335 whole entry): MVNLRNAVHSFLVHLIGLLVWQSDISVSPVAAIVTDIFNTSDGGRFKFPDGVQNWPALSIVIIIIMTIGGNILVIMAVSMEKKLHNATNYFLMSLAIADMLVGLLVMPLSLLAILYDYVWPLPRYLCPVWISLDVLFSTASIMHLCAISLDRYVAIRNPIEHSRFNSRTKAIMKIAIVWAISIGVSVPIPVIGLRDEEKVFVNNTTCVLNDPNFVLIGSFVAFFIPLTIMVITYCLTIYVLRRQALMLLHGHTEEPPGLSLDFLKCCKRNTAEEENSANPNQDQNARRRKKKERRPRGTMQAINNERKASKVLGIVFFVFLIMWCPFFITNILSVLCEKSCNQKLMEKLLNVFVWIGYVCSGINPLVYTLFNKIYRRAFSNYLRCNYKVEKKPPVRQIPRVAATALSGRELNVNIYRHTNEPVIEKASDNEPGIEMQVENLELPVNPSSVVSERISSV

[2] = molecular target: T2, 5-hydroxytryptamine receptor 1A (Rattus norvegicus, UniProt P19327); experiment: Displacement of [3H]-OH-8-DPAT from 5HT1A receptor in Wistar rat hippocampal membrane after 15 mins by liquid scintillation counting; format: cell membranes, Hippocampus
T2 sequence (P19327 whole entry): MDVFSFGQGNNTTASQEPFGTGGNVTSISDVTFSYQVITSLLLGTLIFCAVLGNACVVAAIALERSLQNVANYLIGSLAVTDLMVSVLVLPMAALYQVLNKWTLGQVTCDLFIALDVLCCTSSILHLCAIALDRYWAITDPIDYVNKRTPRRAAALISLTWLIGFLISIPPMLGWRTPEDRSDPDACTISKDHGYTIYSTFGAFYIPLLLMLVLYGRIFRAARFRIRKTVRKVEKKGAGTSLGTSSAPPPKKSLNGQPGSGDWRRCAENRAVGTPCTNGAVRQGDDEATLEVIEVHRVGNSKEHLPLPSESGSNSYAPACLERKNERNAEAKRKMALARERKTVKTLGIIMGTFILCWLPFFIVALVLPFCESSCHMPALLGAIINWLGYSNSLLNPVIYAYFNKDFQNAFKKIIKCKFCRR

[3] = molecular target: T3, D(4) dopamine receptor (Homo sapiens, UniProt P21917); experiment: Displacement of [3H]-YM-09151-2 from human D4 dopamine receptor after 120 mins by liquid scintillation counting
T3 sequence (P21917 whole entry): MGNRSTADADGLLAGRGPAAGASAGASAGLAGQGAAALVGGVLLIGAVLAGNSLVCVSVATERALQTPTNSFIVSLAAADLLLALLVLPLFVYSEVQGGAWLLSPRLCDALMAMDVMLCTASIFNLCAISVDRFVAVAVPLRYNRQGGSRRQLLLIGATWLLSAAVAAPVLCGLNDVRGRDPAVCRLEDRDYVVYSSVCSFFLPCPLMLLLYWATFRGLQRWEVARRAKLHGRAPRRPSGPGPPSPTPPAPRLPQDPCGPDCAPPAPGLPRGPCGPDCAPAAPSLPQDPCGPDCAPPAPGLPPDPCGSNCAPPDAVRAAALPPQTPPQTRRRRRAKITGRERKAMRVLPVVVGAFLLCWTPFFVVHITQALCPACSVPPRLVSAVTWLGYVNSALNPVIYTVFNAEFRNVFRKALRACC

[4] = molecular target: T4, Alpha-2A adrenergic receptor (Rattus norvegicus, UniProt P22909); experiment: Displacement of [3H]-RX821002 from alpha2A adrenergic receptor in Wistar rat cortical membrane after 45 mins by liquid scintillation counting; format: cell membranes
T4 sequence (P22909 whole entry): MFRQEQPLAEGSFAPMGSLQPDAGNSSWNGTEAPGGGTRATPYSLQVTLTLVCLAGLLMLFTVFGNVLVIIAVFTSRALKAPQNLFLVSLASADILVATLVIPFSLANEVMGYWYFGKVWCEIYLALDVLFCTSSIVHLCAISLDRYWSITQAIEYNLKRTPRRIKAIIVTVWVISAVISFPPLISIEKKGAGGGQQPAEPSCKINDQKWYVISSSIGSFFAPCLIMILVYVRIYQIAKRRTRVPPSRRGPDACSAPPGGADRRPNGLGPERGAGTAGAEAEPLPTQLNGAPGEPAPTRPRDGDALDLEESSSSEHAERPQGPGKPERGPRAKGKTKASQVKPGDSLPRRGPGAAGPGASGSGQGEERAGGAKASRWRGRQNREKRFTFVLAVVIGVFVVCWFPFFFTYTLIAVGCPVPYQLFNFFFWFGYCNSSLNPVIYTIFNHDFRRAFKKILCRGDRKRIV

[5] = molecular target: 5-hydroxytryptamine receptor 2A (Rattus norvegicus, UniProt P14842); experiment: Displacement of [3H]-ketanserin from 5HT2A receptor in Wistar rat cortical membrane after 15 mins by liquid scintillation counting; format: cell membranes
[6] = molecular target: T5, Alpha-1B adrenergic receptor (Rattus norvegicus, UniProt P15823); experiment: Displacement of [3H]-prazosin from alpha1B adrenergic receptor in Wistar rat liver membrane after 45 mins by liquid scintillation counting; format: cell membranes
T5 sequence (P15823 whole entry): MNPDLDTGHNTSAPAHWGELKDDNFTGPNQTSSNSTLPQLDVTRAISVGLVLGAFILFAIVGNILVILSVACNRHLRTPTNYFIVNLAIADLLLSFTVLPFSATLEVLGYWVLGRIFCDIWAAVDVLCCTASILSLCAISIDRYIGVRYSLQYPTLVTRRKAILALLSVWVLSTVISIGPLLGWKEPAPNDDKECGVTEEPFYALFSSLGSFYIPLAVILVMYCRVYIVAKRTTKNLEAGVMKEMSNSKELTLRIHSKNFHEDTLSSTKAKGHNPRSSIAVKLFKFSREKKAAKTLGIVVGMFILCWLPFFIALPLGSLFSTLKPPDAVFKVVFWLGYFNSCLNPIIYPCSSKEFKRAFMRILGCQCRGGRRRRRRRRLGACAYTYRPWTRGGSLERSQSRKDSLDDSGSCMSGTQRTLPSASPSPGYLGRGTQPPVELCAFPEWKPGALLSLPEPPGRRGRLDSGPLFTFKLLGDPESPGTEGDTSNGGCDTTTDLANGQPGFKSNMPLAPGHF

[7] = molecular target: Muscarinic acetylcholine receptor; experiment: Displacement of [3H]-QNB from muscarinic receptor in Wistar rat brain membrane after 60 mins by liquid scintillation counting; format: cell membranes
[8] = molecular target: D(2) dopamine receptor (Rattus norvegicus, UniProt P61169); experiment: Displacement of [3H]-YM-09151-2 from D2 dopamine receptor in Wistar rat brain striatal membrane after 60 mins by liquid scintillation counting; format: cell membranes, Striatum
[9] = test system: Plasma; experiment: Drug metabolism in Wistar rat plasma assessed as p-hydroxylated metabolite level at 50 mg/kg, ip after 24 hrs; format: ADME, organism-based; design: dose 50 mg/kg, route intraperitoneal; conditions: in vivo

Chain of D(2) dopamine receptor (P61169 whole entry): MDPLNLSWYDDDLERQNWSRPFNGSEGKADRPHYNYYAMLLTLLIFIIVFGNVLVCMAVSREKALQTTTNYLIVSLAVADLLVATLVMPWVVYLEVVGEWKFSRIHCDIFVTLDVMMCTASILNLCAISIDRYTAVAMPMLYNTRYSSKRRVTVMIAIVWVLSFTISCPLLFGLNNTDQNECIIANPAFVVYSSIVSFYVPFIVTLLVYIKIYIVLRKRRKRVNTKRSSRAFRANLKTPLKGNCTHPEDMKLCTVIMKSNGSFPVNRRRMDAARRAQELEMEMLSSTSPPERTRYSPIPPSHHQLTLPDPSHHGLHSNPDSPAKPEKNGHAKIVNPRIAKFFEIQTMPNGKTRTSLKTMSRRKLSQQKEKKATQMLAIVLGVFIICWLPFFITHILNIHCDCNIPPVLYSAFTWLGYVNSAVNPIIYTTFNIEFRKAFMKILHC
Chain of 5-hydroxytryptamine receptor 2A (P14842 whole entry): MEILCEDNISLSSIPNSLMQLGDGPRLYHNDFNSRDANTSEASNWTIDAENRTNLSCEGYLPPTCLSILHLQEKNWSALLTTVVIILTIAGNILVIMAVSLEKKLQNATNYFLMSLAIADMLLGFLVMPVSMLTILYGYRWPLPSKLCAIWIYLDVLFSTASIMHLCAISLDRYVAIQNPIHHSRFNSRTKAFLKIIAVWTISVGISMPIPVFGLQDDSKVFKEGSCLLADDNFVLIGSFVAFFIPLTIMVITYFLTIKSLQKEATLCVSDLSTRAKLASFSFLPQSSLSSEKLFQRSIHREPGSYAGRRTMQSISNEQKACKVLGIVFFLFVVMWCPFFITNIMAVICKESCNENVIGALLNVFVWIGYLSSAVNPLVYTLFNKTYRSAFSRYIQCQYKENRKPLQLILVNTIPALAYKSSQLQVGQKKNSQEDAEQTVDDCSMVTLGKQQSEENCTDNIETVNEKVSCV

| Drug metabolism [9] | Compound | Ki [1] [µM] | Ki [2] [µM] | Ki [3] [µM] | Ki [4] [µM] | Ki [5] [µM] | Ki [6] [µM] | Ki [7] [µM] | Ki [8] [µM] |
| --- | --- | --- | --- | --- | --- | --- | --- | --- | --- |
| – | Oc1ccc(N2CCN(Cc3cnn(-c4ccc(Cl)cc4)c3)CC2)cc1 | 12.3 | 5.87 | 0.034 | 6.45 | 8.22 | 1.15 | > 30 | 0.53 |
| Active | Clc1ccc(-n2cc(CN3CCN(c4ccccc4)CC3)cn2)cc1 | 8.44 | 0.21 | 0.17 | 2.49 | 6.82 | 3 | > 30 | 0.38 |
